Measurements: publication PMC8541546, “Identification of HLA-A2-Restricted Mutant Epitopes from Neoantigens of Esophageal Squamous Cell Carcinoma” (Vaccines, 2021)

Legend:
HLA-A*0201 molecule = biological target: T1, HLA-A*0201 molecule (Homo sapiens, UniProt P04439, D140Y/D185E/D98H/E176V/E277Q/G131W/G231S/I119V/I121R/I166T/I218V/L300P/L318F/N151K/N90K/P208A/P217A/Q86G/Q94H/R138H/R169H/T345S); experiment: T2A2 cell-binding assay; details: T2A2 cells; FI = (MFI of peptide - MFI of control without peptide)/MFI of control without peptide; anti-HLA-A2 BB7.2, flow cytometry; FI > 1 = high binding affinity
T1 construct: T2A2 cells (TAP-deficient HLA-A2 molecules overexpressing, cultured in IMDM medium); host or cells: T2A2 cells
Procedure: The binding affinity of neoepitope to the MHC molecule and the stable neoepitope/MHC complex are critical for inducing T cell immune response, so we first performed a T2A2 cell-binding assay and stabilization assay. The T2A2 cell-binding assay was measured as in our previous study. The binding affinity was computed as follows: fluorescence index (FI) = (mean fluorescence intensity (MFI) of peptide group-MFI of the dissolved buffer without peptide group)/MFI of the dissolved buffer without peptide group.

[1] = tested on: peptide-pulsed T2A2 cells; experiment: IFN-γ intracellular staining of peptide-induced T cells from donor PBMCs; assay type: cell-based, human; details: PBMCs of HLA-A2+ donors B–F, DCs pulsed with 10 μg/mL peptide, three rounds
Procedure: (§1) DCs involve and play an important role in initiating CD8^+ T cell response. Consequently, ten HLA-A2^+ healthy donors’ PBMCs were isolated, autologous DCs were generated, and CTLs were induced according to the procedure described previously. In brief, PBMCs were seeded at a density of 5 × 10^6 cells/well in a 6-well plate, and after 3 h, the non-adherent cells were removed and cryopreserved for future incubation with mature autologous DCs. Differentiation of the adherent cells into dendritic cells was induced by GM-CSF (100 ng/mL, #300-03, PeproTech, Rocky Hill, NJ, USA) and IL-4 (100 ng/mL; #200-04, PeproTech, USA), with replenishment every 2 days. On day 5, maturation of DCs was induced using 100 ng/mL LPS (#L4516, Sigma-Aldrich, St. Louis, MO, USA), and maturation was checked on day 8 by flow cytometry (BD FACSCelesta™) using markers for anti-human HLA-DR, anti-human CD80, and anti-human CD86. Then, mature DCs (1 × 10^5) were pulsed with each 10 μg /mL individual peptide or no peptides (control) for 2 h at 37 °C. Next, peptide-pulsed DCs were used to prime the previously cryopreserved autologous peripheral blood lymphocytes (PBLs) at a DC/PBL ratio of 1:10 using complete RPMI-1640 media supplemented with 100 IU/mL rhIL-2 (#200-02, PeproTech, USA) and 10 ng/mL rhIL-7 (#200-07, PeproTech, USA). Half of the feeding medium was replenished every 2 days. After 7 days, PBLs were restimulated with freshly pulsed autologous DCs every 7 days.
When target cells were peptide-pulsed T2A2 cells (MUT peptide or its corresponding WT peptide), peptide-specific T cells (from HLA-A2^+ healthy donors B–F) stimulated by MUT peptides were co-cultured with these cells in the presence of BFA for 5 h. Then T cells were marked by anti-human CD3 and anti-human CD8α monoclonal antibody. Thirty minutes later, cells were fixed by fixation buffer (Thermo Scientific, Waltham, MA, USA) for thirty minutes and washed by permeabilization buffer (Thermo Scientific, USA). Permeabilized T cells were marked by anti-human IFN-γ monoclonal antibody.

[2] = tested on: peptide-pulsed T2A2 cells; experiment: Cytotoxicity assay of peptide-induced T cells from donor PBMCs; assay type: cell-based, human; details: donors B–F; E/T 12.5:1, 25:1, 50:1; T2A2 loaded with 50 μg/mL peptide
Procedure: as §1
The cytotoxicity of peptide-specific T cells stimulated by mutant peptides was tested by using Cell Trace Far Red (Thermo Scientific, USA). Transfected cells were suspended in PBS (1 × 10^6 cells/mL) and labelled with Cell Trace Far Red as follows: Control target cells and test target cells were marked by 50 μM and 1 mM Cell Trace Far Red, respectively, at 37 °C for 20 min, protected from light. After incubation, target cells were washed with complete media at 37 °C for 5 min. […] Subsequently, test target cells were mixed with control target cells in a tube, washed once, and analyzed by flow cytometry. Specific lysis (%) = (numbers of control target cells—numbers of test target cells)/numbers of control target cells × 100% [28, 29], where, for tumor cells, the control target cells refer to KYSE140-WT cells marked with 50 μM Cell Trace Far Red, and the test target cell refers to KYSE140-WT or KYSE140-MUT cells marked with 1 mM Cell Trace Far Red, respectively (peptide-specific T cells generated from donors G–K’s PBMCs in vitro or generated from spleen lymphocytes of HLA-A2.1/K^b Tg mice in vivo). Additionally, for T2A2 target cells, T2A2 cells unpulsed and marked with 50 μM Cell Trace Far Red were used as the control target cells, while T2A2 cells loaded with MUT peptides or the corresponding WT peptides (50 μg/mL) or T2A2 cells only were marked with 1 mM Cell Trace Far Red and were used as test target cells (peptide-specific T cells stimulated from donors B–F’s PBMCs).

KYSE140-MUT cells = experiment: Intracellular cytokine assay with minigene-transfected tumor cells in vitro; assay type: cell-based, human; details: donors G–K; KYSE140/KYSE150 transfected with WT or MUT minigene; IFN-γ and granzyme B
Procedure: as §1
Then two vectors were transduced into KYSE140 (HLA-A2^+) and KYSE150 (HLA-A2^−) to get KYSE140-MUT (HLA-A2^+, MUT peptide^+), KYSE140-WT (HLA-A2^+, MUT peptide^−), KYSE150-MUT (HLA-A2^−, MUT peptide^+) and KYSE150-WT (HLA-A2^−, MUT peptide^−) cells (see Supplementary Materials for details).
As for the transfected cells serving as target cells in the in vitro investigation, peptide-specific T cells (from HLA-A2^+ healthy donors G–K) induced by MUT peptides were co-cultured with tumor cell lines transfected with WT or MUT minigenes in IMDM medium in the presence of BFA for 5 h. […]

Sequence | FI (fluorescence index) (HLA-A*0201 molecule) | IFN-γ release of MUT peptide-induced T cells, MUT versus WT peptide-loaded T2A2 cells [1] | lysis cytotoxicity of MUT peptide-induced T cells on T2A2 cells [2] | processing and presentation of MUT peptide by transfected cells, recognized by CTLs (KYSE140-MUT cells)
LLGPNSFEV [TP53-R267P] | 1.81 | immunogenic | could efficiently lyse corresponding MUT peptide-pulsing T2A2 cells | endogenously processed and presented by transfected cells
ILWRQDINL [NFE2L2-D13N] | 1.67 | immunogenic | could efficiently lyse corresponding MUT peptide-pulsing T2A2 cells | endogenously processed and presented by transfected cells
QVTDFLAPL [PCLO-E4090Q] | 1.85 | immunogenic | could efficiently lyse corresponding MUT peptide-pulsing T2A2 cells | endogenously processed and presented by transfected cells
